Experimental data: the supplement of paper PMC11061612

Key:
[1] = test system: NCI-H1781 (Lung Adenocarcinoma); experiment: Bliss excess, mean over the matrix (fraction); higher = more synergy
Method in brief: (§1)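 Cell lines grown in DMEM/F12 or RPMI with 10% FBS were plated in 1536-well plates and held 24 hours at 37°C, 5% CO2 before 72 hours of exposure to two-drug dose matrices, with DMSO typically at 0.2%. CellTiter-Glo 2.0 luminescence gave viability, which was converted to inhibition. Vehicle wells were set to 0 and blank wells to 1. Combination Emax is the second-highest inhibition in the matrix, and Bliss excess is the observed combination effect minus the expected EA + EB − EA·EB, where EA and EB are the single-agent effects.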

SN12C (Kidney Carcinoma) = experiment: as above
Method in brief: as §1

NCI-H2369 (Mesothelioma) = experiment: as above
Method in brief: as §1

[2] = test system: NCI-H1299 (Non-Small Cell Lung Carcinoma); experiment: as above
Method in brief: as §1

[3] = test system: COR-L95 (Small Cell Lung Carcinoma); experiment: as above
Method in brief: as §1

[4] = test system: NCI-H1793 (Lung Adenocarcinoma); experiment: as above
Method in brief: as §1

[5] = test system: DMS-273 (Small Cell Lung Carcinoma); experiment: as above
Method in brief: as §1

[6] = test system: OCI-AML2 (Acute Myeloid Leukemia); experiment: as above
Method in brief: as §1

[7] = test system: CTV-1 (T-Lymphoblastic Leukemia); experiment: as above
Method in brief: as §1

[8] = test system: NCI-H1781 (Lung Adenocarcinoma); experiment: combination Emax (second highest fraction inhibited in the dose matrix, 72 h); higher = more inhibition; extreme values may be limits of the assay
Method in brief: as §1

[9] = test system: IHH-4 (Thyroid Gland Carcinoma); experiment: as above
Method in brief: as §1

IGR-1 (Melanoma) = experiment: as above
Method in brief: as §1

[10] = test system: G-292-Clone-A141B1 (Osteosarcoma); experiment: as above
Method in brief: as §1

[11] = test system: TGBC24TKB (Biliary Tract Carcinoma); experiment: as above
Method in brief: as §1

[12] = test system: COR-L95 (Small Cell Lung Carcinoma); experiment: as above
Method in brief: as §1

[13] = test system: DMS-273 (Small Cell Lung Carcinoma); experiment: as above
Method in brief: as §1

[14] = test system: OCI-AML2 (Acute Myeloid Leukemia); experiment: as above
Method in brief: as §1

[15] = test system: HPAC (Pancreatic Carcinoma); experiment: as above
Method in brief: as §1

[16] = test system: NALM-6 (B-Lymphoblastic Leukemia); experiment: as above
Method in brief: as §1

NCI-H2595 (Mesothelioma) = experiment: as above
Method in brief: as §1
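Throughout, for Bliss excess, mean over the matrix: after 72 h of two-drug dosing.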

| SMILES | Bliss excess [1] | Bliss excess (SN12C (Kidney Carcinoma)) | Bliss excess (NCI-H2369 (Mesothelioma)) | Bliss excess [2] | Bliss excess [3] | Bliss excess [4] | Bliss excess [5] | Bliss excess [6] | Bliss excess [7] | combination Emax [8] | combination Emax [9] | combination Emax (IGR-1 (Melanoma)) | combination Emax [10] | combination Emax [11] | combination Emax [12] | combination Emax [13] | combination Emax [14] | combination Emax [15] | combination Emax [16] | combination Emax (NCI-H2595 (Mesothelioma)) |
| --- | --- | --- | --- | --- | --- | --- | --- | --- | --- | --- | --- | --- | --- | --- | --- | --- | --- | --- | --- | --- |
| CN(C)CCCOc1ccc(-c2ccc3ncc4c(c3c2)n(C2CCOCC2)c(=O)n4C)cn1 [AZD0156] + C=CCn1c(=O)c2cnc(Nc3ccc(N4CCN(C)CC4)cc3)nc2n1-c1cccc(C(C)(C)O)n1 [AZD1775] (first compound max 1 µM, partner max 1 µM) | -0.0014 | -0.0717 | -0.0266 | -0.0179 | -0.107 | -0.0489 | -0.0142 | -0.0258 | -0.0169 | 0.43 | 0.821 | 0.223 | 0.197 | 0.677 | 0.623 | 0.589 | 0.97 | 0.67 | 0.906 | 0.12 |
| CN(C)CCCOc1ccc(-c2ccc3ncc4c(c3c2)n(C2CCOCC2)c(=O)n4C)cn1 [AZD0156] + CCN(CCO)CCCOc1ccc2c(Nc3cc(CC(=O)Nc4cccc(F)c4)[nH]n3)ncnc2c1 [AZD2811] (first compound max 1 µM, 7x7, partner max 1 µM) | 0.0374 | -0.0563 | -0.0392 | -0.021 | -0.0116 | -0.0309 | 0.0307 | 0.0665 | 0.0458 | 0.608 | 0.322 | 0.135 | 0.111 | 0.505 | 0.208 | 0.793 | 0.773 | 0.206 | 0.766 | 0.108 |
| CN(C)CCCOc1ccc(-c2ccc3ncc4c(c3c2)n(C2CCOCC2)c(=O)n4C)cn1 [AZD0156] + C[C@@H]1COCCN1C2=NC(=NC(=C2)C3(CC3)[S@](=N)(=O)C)C4=C5C=CNC5=NC=C4 [AZD6738] (first compound max 1 µM, 7x7, partner max 10 µM) | -0.0229 | -0.0795 | -0.0253 | 0.0234 | -0.0363 | -0.0268 | 0.0084 | -0.051 | -0.0115 | 0.346 | 0.907 | 0.523 | 0.263 | 0.796 | 0.525 | 0.834 | 0.975 | 0.761 | 0.903 | 0.12 |
| CN(C)CCCOc1ccc(-c2ccc3ncc4c(c3c2)n(C2CCOCC2)c(=O)n4C)cn1 [AZD0156] + O=C(c1cc(Cc2n[nH]c(=O)c3ccccc23)ccc1F)N1CCN(C(=O)C2CC2)CC1 [Olaparib] (first compound max 3 µM, partner max 3 µM) | 0.0077 | -0.0357 | -0.0455 | 0.0495 | -0.11 | 0.0074 | 0.155 | 0.171 | 0.0654 | 0.585 | 0.516 | 0.209 | 0.411 | 0.457 | 0.373 | 0.433 | 0.67 | 0.36 | 0.696 | 0.139 |
| C=CCn1c(=O)c2cnc(Nc3ccc(N4CCN(C)CC4)cc3)nc2n1-c1cccc(C(C)(C)O)n1 [AZD1775] + C1CN(CCC1(C(=O)N[C@@H](CCO)C2=CC=C(C=C2)Cl)N)C3=NC=NC4=C3C=CN4 [Capivasertib] (first compound max 3 µM, partner max 3 µM) | -0.096 | -0.0516 | 0.0035 | -0.0756 | 0.0297 | 0.0373 | -0.0053 | -0.0405 | 0.0399 | 0.858 | 0.91 | 0.482 | 0.492 | 0.811 | 0.666 | 0.896 | 0.988 | 0.636 | 0.985 | 0.281 |
| C=CCn1c(=O)c2cnc(Nc3ccc(N4CCN(C)CC4)cc3)nc2n1-c1cccc(C(C)(C)O)n1 [AZD1775] + C[C@@H]1COCCN1C2=NC(=NC(=C2)C3(CC3)[S@](=N)(=O)C)C4=C5C=CNC5=NC=C4 [AZD6738] (first compound max 1 µM, partner max 10 µM) | -0.0334 | -0.0359 | -0.0395 | -0.0268 | -0.101 | -0.0289 | 0.0645 | 0.0349 | 0.0737 | 0.65 | 0.886 | 0.538 | 0.354 | 0.832 | 0.737 | 0.923 | 1 | 0.705 | 0.971 | 0.266 |
| C=CCn1c(=O)c2cnc(Nc3ccc(N4CCN(C)CC4)cc3)nc2n1-c1cccc(C(C)(C)O)n1 [AZD1775] + O=C(c1cc(Cc2n[nH]c(=O)c3ccccc23)ccc1F)N1CCN(C(=O)C2CC2)CC1 [Olaparib] (first compound max 1 µM, partner max 10 µM) | -0.0451 | -0.0136 | -0.084 | -0.0048 | -0.101 | -0.0145 | -0.0334 | 0.0249 | -0.0239 | 0.538 | 0.695 | 0.296 | 0.294 | 0.687 | 0.639 | 0.549 | 0.992 | 0.649 | 0.94 | 0.179 |
| CCN(CCO)CCCOc1ccc2c(Nc3cc(CC(=O)Nc4cccc(F)c4)[nH]n3)ncnc2c1 [AZD2811] + C=CCn1c(=O)c2cnc(Nc3ccc(N4CCN(C)CC4)cc3)nc2n1-c1cccc(C(C)(C)O)n1 [AZD1775] (first compound max 1 µM, partner max 1 µM) | 0.0795 | -0.0698 | -0.0434 | -0.024 | -0.0225 | -0.0064 | 0.0064 | 0.0077 | 0.0014 | 0.819 | 0.667 | 0.314 | 0.152 | 0.651 | 0.655 | 0.827 | 0.991 | 0.643 | 0.915 | 0.0802 |
| CCN(CCO)CCCOc1ccc2c(Nc3cc(CC(=O)Nc4cccc(F)c4)[nH]n3)ncnc2c1 [AZD2811] + C[C@@H]1COCCN1C2=NC(=NC(=C2)C3(CC3)[S@](=N)(=O)C)C4=C5C=CNC5=NC=C4 [AZD6738] (first compound max 1 µM, 7x7, partner max 10 µM) | 0.0216 | -0.0641 | -0.0621 | -0.0808 | -0.0658 | -0.0341 | -0.0332 | -0.0145 | 0.0009 | 0.775 | 0.763 | 0.374 | 0.263 | 0.746 | 0.533 | 0.771 | 0.984 | 0.583 | 0.957 | 0.21 |
| COc1nnc2ccc(N3CCC(c4ccc(OCCN5CCN(C)C(=O)[C@H]5C)cc4)CC3)nn12 [AZD5153] + CN(CC[C@H](CSC1=CC=CC=C1)NC2=C(C=C(C=C2)S(=O)(=O)NC(=O)C3=CC=C(C=C3)N4CCC(CC4)[C@H](C5=CC=CC=C5C6=CC=C(C=C6)Cl)O)S(=O)(=O)C(F)(F)F)CCO [AZD4320] (first compound max 1 µM, 7x7, partner max 1 µM) | -0.0212 | – | -0.0032 | – | – | 0.039 | 0.0043 | – | 0.0057 | 0.251 | – | 0.909 | – | 0.932 | – | 0.746 | – | 0.713 | – | – |
| Cc1c2c(nn1C)CSCc1cc(n(C)n1)CSc1cc(c3ccccc3c1)OCCCc1c(C(=O)O)n(C)c3c-2c(Cl)ccc13 [AZD5991] + C1CN(CCC1(C(=O)N[C@@H](CCO)C2=CC=C(C=C2)Cl)N)C3=NC=NC4=C3C=CN4 [Capivasertib] (first compound max 1 µM, 7x7, partner max 3 µM) | 0.0079 | -0.0239 | -0.012 | -0.0174 | 0.0071 | 0.0258 | -0.0524 | 0.0385 | 0.0027 | 0.76 | – | 0.26 | 0.248 | 0.175 | 0.409 | 0.987 | 1 | 0.13 | 0.694 | 0.311 |
| CC(=O)c1c(C)c2cnc(Nc3ccc(N4CCNCC4)cn3)nc2n(C2CCCC2)c1=O [Palbociclib] + CN(CC[C@H](CSC1=CC=CC=C1)NC2=C(C=C(C=C2)S(=O)(=O)NC(=O)C3=CC=C(C=C3)N4CCC(CC4)[C@H](C5=CC=CC=C5C6=CC=C(C=C6)Cl)O)S(=O)(=O)C(F)(F)F)CCO [AZD4320] (first compound max 10 µM, 7x7, partner max 1 µM) | -0.0811 | – | -0.0408 | – | – | -0.0299 | -0.106 | – | -0.0365 | 0.476 | – | 0.976 | – | 0.736 | – | 0.306 | – | 0.497 | – | – |
| CCc1c2c(nc3ccc(O)cc13)-c1cc3c(c(=O)n1C2)COC(=O)[C@]3(O)CC [SN-38] + O=C(c1cc(Cc2n[nH]c(=O)c3ccccc23)ccc1F)N1CCN(C(=O)C2CC2)CC1 [Olaparib] (first compound max 0.3 µM, 7x7, partner max 10 µM) | 0.0788 | 0.0457 | 0.0128 | 0.129 | 0.0044 | – | 0.0129 | 0.0787 | 0.0665 | 1 | 0.921 | 0.634 | 0.179 | 0.472 | 0.85 | 0.799 | 0.999 | 0.246 | 0.99 | 0.28 |
| C[C@@H](c1ccc2nccn2c1)n1nnc2ncc(-c3cnn(C)c3)nc21 [Savolitinib] + CN(CC[C@H](CSC1=CC=CC=C1)NC2=C(C=C(C=C2)S(=O)(=O)NC(=O)C3=CC=C(C=C3)N4CCC(CC4)[C@H](C5=CC=CC=C5C6=CC=C(C=C6)Cl)O)S(=O)(=O)C(F)(F)F)CCO [AZD4320] (first compound max 1 µM, 7x7, partner max 1 µM) | -0.053 | – | -0.0522 | – | – | -0.0329 | -0.0126 | – | -0.0887 | 0.287 | – | 0.409 | – | 0.561 | – | 0.185 | – | 0.343 | – | – |
